# Measurements: US4387105A, “Methods of treating atherosclerosis with dialkylureas and dialkylthioureas” (priority 1982, dated 1983)
# Assays:
# [1] = biological target: T1, fatty acyl CoA:cholesterol acyl transferase (ACAT) (Rattus norvegicus, UniProt O70536); experiment: Inhibition of ACAT in rat adrenal microsomal supernatant (14C-oleoyl CoA, cholesteryl ester counted); format: biochemical; set-up: dose or concentration left out as unconfirmed; settings: vs control without compound
# T1 construct: The supernatant, containing the microsomal fraction, served as the source of the cholesterol-esterifying enzyme; from tissue; host or cells: rat adrenals (1000 x g supernatant containing the microsomal fraction)
# T1 sequence (O70536 1-545): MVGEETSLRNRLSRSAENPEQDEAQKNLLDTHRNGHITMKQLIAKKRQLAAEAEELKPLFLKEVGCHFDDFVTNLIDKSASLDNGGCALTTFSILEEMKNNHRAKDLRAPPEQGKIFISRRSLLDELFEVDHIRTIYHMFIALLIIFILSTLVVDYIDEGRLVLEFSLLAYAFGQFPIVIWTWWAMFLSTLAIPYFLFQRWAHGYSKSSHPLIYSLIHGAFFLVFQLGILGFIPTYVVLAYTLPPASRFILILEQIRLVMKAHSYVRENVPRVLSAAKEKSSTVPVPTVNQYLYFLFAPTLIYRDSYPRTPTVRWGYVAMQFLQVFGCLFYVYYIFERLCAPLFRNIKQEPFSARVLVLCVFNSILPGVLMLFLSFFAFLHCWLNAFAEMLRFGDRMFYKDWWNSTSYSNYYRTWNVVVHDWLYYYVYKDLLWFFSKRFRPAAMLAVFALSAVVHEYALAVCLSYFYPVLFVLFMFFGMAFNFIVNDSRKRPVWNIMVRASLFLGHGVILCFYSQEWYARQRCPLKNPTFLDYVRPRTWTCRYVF
# Method: The compounds of the present invention were assayed for two types of biological activity related to their potential use as antiatherosclerotic agents. Compounds were tested in vitro for the ability to inhibit the enzyme fatty acyl CoA:cholesterol acyl transferase (ACAT) and in vivo for serum hypolipidemic activity as measured by their ability to inhibit lipid absorption in rats. The compounds were tested for their ability to inhibit ACAT according to the following procedure:
# Rat adrenals were homogenized in 0.2 M monobasic potassium phosphate buffer, pH 7.4, and centrifuged at 1000 times gravity for 15 minutes at 5° C. The supernatant, containing the microsomal fraction, served as the source of the cholesterol-esterifying enzyme, fatty acyl CoA:cholesterol acyl transferase (ACAT). A mixture comprising 50 parts of adrenal supernatant, 10 parts of albumin (BSA) (50 mg./ml.), 3 parts of test compound (final concentration […].) and 500 parts of buffer was preincubated at 37° C. for 10 minutes. After treatment with 20 parts of oleoyl CoA(^14 C-[…]) the mixture was incubated at 37° C. for 10 minutes. A control mixture, omitting the test compound, was prepared and treated in the same manner. The lipids from the incubation mixture were extracted into an organic solvent and separated by thin-layer chromatography. The cholesteryl ester fraction was counted in a scintillation counter. This procedure is a modification of that described by Hashimoto, et al., Life Scie., 12 (Part II), 1-12 (1973).
# [2] = tested on: cholesterol absorption; settings: po, 0.03 % of diet, 336 h
# Method: Inhibition of cholesterol absorption was determined by feeding male Sprague-Dawley rats, weighing 150-170 g., a 1% cholesterol:0.5% cholic acid diet for 2 weeks. The diet also contained compounds being tested at a dose of 0.03% of the diet. Control rats were fed the same diet without any compound. At the end of the test the rats were sacrificed by decapitation. […] Livers are removed, a 0.4 g sample is taken from the center of the large lobe, and the sample is subjected to saponification using 25% saturated potassium hydroxide in ethanol. The resulting neutral sterols are extracted with petroleum ether and extract analyzed for cholesterol. The effectiveness of the compound in inhibiting cholesterol absorption is measured by the lowering of either serum cholesterol or liver cholesterol relative the values for control rats.
# [3] = tested on: cholesterol absorption; experiment: Inhibition of cholesterol absorption in cholesterol/cholic acid fed rats given [4-14C] cholesterol by gavage (fecal 14C sterols); format: in vivo, male Sprague-Dawley rats; set-up: key: Active: A compound is considered active in inhibiting cholesterol absorption if it meets at least the first two criteria; settings: 0.01% to 0.1% of the diet for 2 weeks; [4-14C] cholesterol plus 2 mg. test compound by gavage after 9 days; feces collected 5 days
# Method: Inhibition of cholesterol absorption also was determined by feeding male Sprague-Dawley rats, weighing 150-170 g., a 1% cholesterol:0.5% cholic acid diet for 2 weeks. The diet also contained compounds being tested at doses of between 0.01% and 0.1% of the diet. After the rats had been on the test diet for 9 days each rat is given by gavage a sonicated mixture of [4-^14 C] cholesterol (6μCi), 0.2 ml. triolein, 10 mg. cholic acid, 20 mg. cholesterol and 2 mg. of test compound in 0.8 ml. of 10% non-fat dry milk. Feces were collected for each 24 hour period for the remaining 5 days during which the rats were maintained on the 1% cholesterol:0.5% cholic acid plus test compound diet. Fecal ^14 C-neutral sterols were extracted with petroleum ether from saponified feces by the method of Grundy, S. M., et al., J. Lipid Res., 6, 397 (1965) and counted in a scintillation counter. Acidic sterols (bile acids) were extracted by acidifying the saponified feces and extracting in chloroform:methanol (2:1) and counting the chloroform phase in a scintillation counter. Total extraction of radioactivity (98-100%) from saponified feces is realized by this procedure.
# Radioactivity in liver and adrenals were determined by saponification and extraction into petroleum ether and counting by scintillation techniques. Total cholesterol in liver and adrenals was determined by the cholorimetric melthod of Zlatkis, A., et al., J. Lab. Clin. Med., 41, 486 (1953) on saponified-organic solvent extracted tissue prepared by the method of Trinder, P., Analyst, 77, 321 (1952). Serum cholesterol and triglycerides were assayed enzymaticaly by the method of Allain, C. C., et al., Clin. Chem., 20, 470 (1974) on a Centrifichem 400 Analyzer. ^14 C-Cholesterol in serum was determined by direct scintillation counting.
# The effect of test compounds on cholesterol absorption was determined by:
# 1. increase in excreted ^14 C-neutral sterol
# 2. decrease in excreted ^14 C-acidic sterol
# 3. decrease in ^14 C-cholesterol or ^14 C-cholesteryl ester in the liver
# 4. decrease in ^14 C-cholesterol or ^14 C-cholesteryl ester in the serum. […]
Structure (SMILES),% Inhibition [1],Result (inhibition of cholesterol absorption: lowering of either serum cholesterol or liver cholesterol relative to control rats) [2],Result (inhibition of cholesterol absorption: increase in excreted 14C-neutral sterol and decrease in excreted 14C-acidic sterol) [3]
"CCCCN(CCCC)C(=O)Nc1cc(Cl)cc(Cl)c1 [1,1-Di-(n-butyl)-3-(3,5-dichlorophenyl)urea]",79.3%,Active,
"CCCCN(CCCC)C(=O)Nc1ccc([N+](=O)[O-])cc1Cl [1,1-Di-(n-butyl)-3-(2-chloro-4-nitrophenyl)urea]",86.7%,,
"CCCCN(CCCC)C(=O)Nc1cccc(Cl)c1Cl [1,1-Di-(n-butyl)-3-(2,3-dichlorophenyl)urea]",71.8%,,
"CCCCN(CCCC)C(=O)Nc1ccc(F)c(Cl)c1 [1,1-Di-(n-butyl)-3-(3-chloro-4-fluorophenyl)urea]",90.9%,,
"CCCCN(CCCC)C(=O)Nc1cccc(Cl)c1C [1,1-Di-(n-butyl)-3-(3-chloro-2-methylphenyl)urea]",80.2%,Active,
"CCCCN(CCCC)C(=O)Nc1cccc(Cl)c1 [1,1-di-(n-butyl)-3-(3-chlorophenyl)urea, 1,1-Di-(n-butyl)-3-(3-chlorophenyl)urea]",88.3%,,
"CCCCN(CCCC)C(=O)Nc1ccc(C)cc1C [1,1-Di-(n-butyl)-3-(2,4-dimethylphenyl)urea]",81.1%,Active,Active
"CCCCN(CCCC)C(=O)Nc1cc(C)ccc1C [1,1-Di-(n-butyl)-3-(2,5-dimethylphenyl)urea]",96.1%,,
"CCCCN(CCCC)C(=O)Nc1ccc(OCC)cc1 [1,1-di-(n-butyl)-3-(4-ethoxyphenyl)urea, 1,1-Di-(n-butyl)-3-(4-ethoxyphenyl)urea]",78.6%,,
"CCCCN(CCCC)C(=O)Nc1ccc(C)c(Cl)c1 [1,1-Di-(n-butyl)-3-(3-chloro-4-methylphenyl)urea]",91.2%,,
"CCCCN(CCCC)C(=O)Nc1cccc(C)c1C [1,1-Di-(n-butyl)-3-(2,3-dimethylphenyl)urea]",87.6%,,
"CCCCN(CCCC)C(=O)Nc1cc(C)cc(C)c1 [1,1-Di-(n-butyl)-3-(3,5-dimethylphenyl)urea]",83.5%,Active,
"CCCCN(CCCC)C(=O)Nc1ccc(Cl)c(C(F)(F)F)c1 [1,1-Di-(n-butyl)-3-(4-chloro-3-trifluoromethylphenyl)urea]",87.3%,,
"CCCCN(CCCC)C(=O)Nc1cccc(C(F)(F)F)c1 [1,1-Di-(n-butyl)-3-(3-trifluoromethylphenyl)urea]",75.0%,,
"Cc1ccc(NC(=O)N(CCCCC2CCCCC2)CCCCC2CCCCC2)c(C)c1 [1,1-Di-(4-cyclohexyl-n-butyl)-3-(2,4-dimethylphenyl)urea]",86.3%,,

# Second part, led by results:
% Inhibition [1],Structure (SMILES),Result (inhibition of cholesterol absorption: lowering of either serum cholesterol or liver cholesterol relative to control rats) [2],Result (inhibition of cholesterol absorption: increase in excreted 14C-neutral sterol and decrease in excreted 14C-acidic sterol) [3]
90.4%,"Cc1ccc(NC(=O)N(CCC(C)CC(C)(C)C)CCC(C)CC(C)(C)C)c(C)c1 (centres unmarked) [1,1-di-(3,5,5-trimethylhexyl)-3-(2,4-dimethylphenyl)urea]",Active,
93.5%,"CCCCc1ccc(NC(=O)N(CCCC)CCCC)cc1 [1,1-di-(n-butyl)-3-(4-n-butylphenyl)urea, 1,1-Di-(n-butyl)-3-(4-n-butylphenyl)urea]",Active,
95.1%,"CCCCCCN(CCCCCC)C(=O)Nc1ccc(C)cc1C [1,1-Di-(n-hexyl)-3-(2,4-dimethylphenyl)urea]",Active,Active
61.8%,"CCCCN(CCCC)C(=O)Nc1ccccc1C [1,1-di-(n-butyl)-3-(2-methylphenyl)urea, 1,1-Di-(n-butyl)-3-(2-methylphenyl)urea]",Active,
90.3%,"CCCCCN(CCCCC)C(=O)Nc1ccc(C)cc1C [1,1-Di-(n-pentyl)-3-(2,4-dimethylphenyl)urea]",Active,Active
64.0%,"CCCCCCCCCCN(CCCCCCCCCC)C(=O)Nc1ccc(C)cc1C [1,1-Di-(n-decyl)-3-(2,4-dimethylphenyl)urea]",Active,
88.6%,"CCCCCCCCN(CCCCCCCC)C(=O)Nc1ccc(C)cc1C [1,1-Di-(n-octyl)-3-(2,4-dimethylphenyl)urea]",Active,
75.3%,"CCCCN(CCCC)C(=O)Nc1cc(Cl)ccc1C [1,1-di-(n-butyl)-3-(5-chloro-2-methylphenyl)urea]",,
88.7%,"Cc1ccc(NC(=O)N(CCC(C)C)CCC(C)C)c(C)c1 [1,1-Di-(n-isopentyl)-3-(2,4-dimethylphenyl)urea]",Active,
77.1%,"CCCCN(CCCC)C(=O)Nc1cccc(OC)c1 [1,1-di-(n-butyl)-3-(3-methoxyphenyl)urea]",,
41.2%,"Cc1cccc(C)c1NC(=O)N(CC(C)C)CC(C)C [1,1-di-(isobutyl)-3-(2,6-dimethylphenyl)urea]",,
76.4%,"CCCCN(CCCC)C(=O)Nc1ccc(C(C)C)cc1 [1,1-Di-(n-butyl)-3-(4-isopropylphenyl)urea]",,
55.9%,"CCCCN(CCCC)C(=O)Nc1ccc(F)cc1 [1,1-di-(n-butyl)-3-(4-fluorophenyl)urea, 1,1-Di-(n-butyl)-3-(4-fluorophenyl)urea]",,
71.0%,"CCCCN(CCCC)C(=O)Nc1ccccc1Cl [1,1-di-(n-butyl)-3-(2-chlorophenyl)urea, 1,1-Di-(n-butyl)-3-(2-chlorophenyl)urea]",,
86.2%,"CCCCC(CC)CN(CC(CC)CCCC)C(=O)Nc1ccc(C)cc1C (centres unmarked) [1,1-di-(2-ethylhexyl)-3-(2,4-dimethylphenyl)urea]",,
74.3%,"Cc1ccc(C)c(NC(=O)N(CC(C)C)CC(C)C)c1 [1,1-di-(isobutyl)-3-(2,5-dimethylphenyl)urea]",,
86.0%,"CCCCN(CCCC)C(=O)Nc1cccc(Br)c1 [1,1-di-(n-butyl)-3-(3-bromophenyl)urea, 1,1-Di(n-butyl)-3-(3-bromophenyl)urea]",,
